PubChem BioAssay AID248 (DTP/NCI, 2004)
“And” between values parts separate entries of the source, which are not always exact repeats. Equal values may be shown once. Toxic doses and inconclusive results are not listed. No stated cut-off is given here; in the data, active means T/C of 150% or more; inactive means T/C below 125%.

Test system: L1210 leukemia ip in BDF1 mice, survival T/C
Assay: NCI In Vivo Anticancer Drug Screen. Data for tumor model L1210 Leukemia (intraperitoneal) in B6D2F1 (BDF1) mice
Conditions: endpoint: mean survival time, higher = longer survival
Summary of the method: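 Antitumor effect is assessed in tumor-bearing animals. Survival in the compound arm is compared with a vehicle-dosed control arm and expressed as their quotient.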

[1] = dose: 50.0 mg/kg/injection, schedule: Q01DX009 (ip), vehicle: saline
[2] = dose: 12.5 mg/kg/injection, schedule: Q01DX009 (ip), vehicle: Klucel (hydroxypropylcellulose) (HPC)
[3] = dose: 25.0 mg/kg/injection, schedule: Q01DX009 (ip), vehicle: Klucel (hydroxypropylcellulose) (HPC)
[4] = dose: 100.0 mg/kg/injection, schedule: Q04DX003 (ip), vehicle: saline with Tween-80
[5] = dose: 200.0 mg/kg/injection, schedule: Q04DX003 (ip), vehicle: saline with Tween-80
[6] = dose: 100.0 mg/kg/injection, schedule: Q01DX001 (ip), vehicle: carboxymethylcellulose (CMC)
[7] = dose: 200.0 mg/kg/injection, schedule: Q01DX001 (ip), vehicle: carboxymethylcellulose (CMC)
[8] = dose: 400.0 mg/kg/injection, schedule: Q01DX001 (ip), vehicle: carboxymethylcellulose (CMC)

Measured: T/C

OCC1SC(O)C(O)C(O)C1O (stereo not given)
inactive: [1] 102 % of control | dose: 50.0 mg/kg/injection, schedule: Q01DX009 (oral), vehicle: saline 100 % of control | dose: 100.0 mg/kg/injection, schedule: Q01DX009 (ip), vehicle: saline 102 % of control | dose: 100.0 mg/kg/injection, schedule: Q01DX009 (oral), vehicle: saline 102 % of control | dose: 200.0 mg/kg/injection, schedule: Q01DX009 (ip), vehicle: saline 112 % of control | dose: 200.0 mg/kg/injection, schedule: Q01DX009 (oral), vehicle: saline 98 % of control | dose: 400.0 mg/kg/injection, schedule: Q01DX009 (ip), vehicle: saline 109 % of control | dose: 400.0 mg/kg/injection, schedule: Q01DX009 (oral), vehicle: saline 96 % of control

CC(C)c1ccc(N2C(=O)C=CC2=O)cc1
inactive: [2] 100 % of control | [3] 91 % of control

O=C(O)CCCCCCCCCCCCCCC(=O)O
inactive: dose: 100.0 mg/kg/injection, schedule: Q04DX002 (ip), vehicle: Klucel (hydroxypropylcellulose) (HPC) 93 % of control and 97 % of control | dose: 200.0 mg/kg/injection, schedule: Q04DX002 (ip), vehicle: Klucel (hydroxypropylcellulose) (HPC) 101 % of control | dose: 400.0 mg/kg/injection, schedule: Q04DX002 (ip), vehicle: Klucel (hydroxypropylcellulose) (HPC) 93 % of control and 101 % of control

CC1=CC(=O)C2CCC=C(C(=O)O)C2(C)C1=O (stereo not given)
inactive: dose: 100.0 mg/kg/injection, schedule: Q04DX003 (ip), vehicle: alcohol 97 % of control | dose: 200.0 mg/kg/injection, schedule: Q04DX003 (ip), vehicle: alcohol 102 % of control | dose: 400.0 mg/kg/injection, schedule: Q04DX003 (ip), vehicle: alcohol 97 % of control

O=N[O-].[Co].[N-]=C=S.[NH2-].[NH2-].[NH2-].[NH2-]
inactive: dose: 6.25 mg/kg/injection, schedule: Q01DX009 (ip), vehicle: saline 106 % of control | dose: 12.5 mg/kg/injection, schedule: Q01DX009 (ip), vehicle: saline 114 % of control | dose: 12.5 mg/kg/injection, schedule: Q04DX003 (ip), vehicle: saline with Tween-80 96 % of control | dose: 13.2 mg/kg/injection, schedule: Q01DX009 (ip), vehicle: saline 104 % of control | dose: 16.0 mg/kg/injection, schedule: Q01DX009 (ip), vehicle: saline 104 % of control | dose: 20.0 mg/kg/injection, schedule: Q01DX009 (ip), vehicle: saline 113 % of control | dose: 25.0 mg/kg/injection, schedule: Q01DX009 (ip), vehicle: saline 104 % of control | dose: 25.0 mg/kg/injection, schedule: Q04DX003 (ip), vehicle: saline with Tween-80 96 % of control | dose: 30.0 mg/kg/injection, schedule: Q01DX009 (ip), vehicle: saline 113 % of control | dose: 35.0 mg/kg/injection, schedule: Q01DX009 (ip), vehicle: saline 104 % of control | [1] 116 % of control | dose: 50.0 mg/kg/injection, schedule: Q04DX003 (ip), vehicle: saline with Tween-80 88 % of control | [4] 105 % of control | [5] 90 % of control

Nc1ncnc2c1c(-c1nc(=S)[nH][nH]1)cn2C1OC(CO)C(O)C1O (stereo not given)
inactive: dose: 100.0 mg/kg/injection, schedule: Q01DX005 (ip), vehicle: saline 106 % of control | dose: 200.0 mg/kg/injection, schedule: Q01DX005 (ip), vehicle: saline 108 % of control

O=C(/C(=C\c1ccccc1)CN1CCOCC1)c1ccc(Br)cc1
inactive: [2] 96 % of control | [3] 93 % of control | dose: 50.0 mg/kg/injection, schedule: Q01DX009 (ip), vehicle: Klucel (hydroxypropylcellulose) (HPC) 91 % of control | [4] 87 % of control | [5] 93 % of control

CC1C(C)(C)C1(F)Cl (stereo not given)
inactive: [6] 95 % of control | [7] 103 % of control | [8] 108 % of control

Cc1c2ccccc2c(CN(C)CC(=O)O)c2ccccc12
inactive: dose: 50.0 mg/kg/injection, schedule: Q01DX009 (ip), vehicle: saline with Tween-80 92 % of control | dose: 100.0 mg/kg/injection, schedule: Q01DX009 (ip), vehicle: saline with Tween-80 90 % of control | dose: 200.0 mg/kg/injection, schedule: Q01DX009 (ip), vehicle: saline with Tween-80 92 % of control

N#CC(c1ccccc1)c1cccnc1 (stereo not given)
inactive: [6] 94 % of control | [7] 92 % of control | [8] 89 % of control

CN1c2ccc(Br)c[c]2[Sn]2([c]3cc(Br)ccc31)[c]1cc(Br)ccc1N(C)c1ccc(Br)c[c]12
inactive: dose: 100.0 mg/kg/injection, schedule: Q01DX001 (ip), vehicle: steriod suspending solution 104 % of control | dose: 200.0 mg/kg/injection, schedule: Q01DX001 (ip), vehicle: steriod suspending solution 107 % of control | dose: 400.0 mg/kg/injection, schedule: Q01DX001 (ip), vehicle: steriod suspending solution 109 % of control

NC(=O)C(C(N)=O)C1CCCCc2ccccc21 (stereo not given)
inactive: [6] 90 % of control | [7] 106 % of control | [8] 88 % of control

O=[As](O)(CC(O)COc1ccc(Cl)cc1Cl)c1ccc(Cl)cc1 (stereo not given)
inactive: dose: 6.25 mg/kg/injection, schedule: Q01DX001 (ip), vehicle: saline with Tween-80 105 % of control | dose: 12.5 mg/kg/injection, schedule: Q01DX001 (ip), vehicle: saline with Tween-80 98 % of control | dose: 25.0 mg/kg/injection, schedule: Q01DX001 (ip), vehicle: saline with Tween-80 98 % of control | dose: 100.0 mg/kg/injection, schedule: Q01DX001 (ip), vehicle: saline with Tween-80 91 % of control

CCS(=O)(=O)N1CCCCC1C (stereo not given)
inactive: dose: 100.0 mg/kg/injection, schedule: Q04DX002 (ip), vehicle: saline with Tween-80 93 % of control | dose: 200.0 mg/kg/injection, schedule: Q04DX002 (ip), vehicle: saline with Tween-80 99 % of control | dose: 400.0 mg/kg/injection, schedule: Q04DX002 (ip), vehicle: saline with Tween-80 96 % of control

COc1ccc(NC(=O)N2CCOCC2)cc1OC
inactive: [4] 102 % of control | [5] 96 % of control | dose: 400.0 mg/kg/injection, schedule: Q04DX003 (ip), vehicle: saline with Tween-80 89 % of control

OC(c1nc2ccccc2[nH]1)C(O)c1nc2ccccc2[nH]1 (stereo not given)
inactive: dose: 75.0 mg/kg/injection, schedule: Q01DX001 (ip), vehicle: saline 102 % of control | dose: 150.0 mg/kg/injection, schedule: Q01DX001 (ip), vehicle: saline 109 % of control | dose: 300.0 mg/kg/injection, schedule: Q01DX001 (ip), vehicle: saline 102 % of control
